In patent US20240307345A1, “R-MDMA and S-MDMA TO ASSIST PSYCHOTHERAPY” (Universitatsspital Basel, priority 2022, published 2024):
Entries after “also recorded” stand apart in the source; their conditions may differ.

Tests used:
healthy subjects [1] = experiment: Effects on mood on the Adjective Mood Rating Scale (AMRS); assay type: in vivo, human
Experimental: (§1) Study design: The present study compares the acute subjective, physiological and endocrine effects of S-MDMA (125 mg), R-MDMA (125 and 250 mg), MDMA (125 mg) using a placebo-controlled double-blind 5-period cross-over design in 24 healthy subjects. Conditions are 1.) R-MDMA 125 mg, 2). R-MDMA 250 mg, 3) S-MDMA 125 mg, 4) MDMA 125 mg, 5) placebo. Treatment order is counterbalanced. Washout periods between substance administrations are at least 10 days. Study days include a 10-hour study session with a subsequent single measurement (short visit) the next morning (24 hours after drug administration).
(§2) Psychometric assessments: Visual Analog Scale (VAS): VASs is repeatedly used to assess subjective alterations in consciousness over time. Single scales are presented as 100 mm horizontal lines marked with “not at all” on the left and “extremely” on the right. The following VAS items are used: “any drug effect”, “good drug effect”, “bad drug effect”, “stimulated”, “liking”, “happy”, “content”, “talkative”, “open”, “trust”, “feeling close to others”, “anxiety”, “alteration of vision”, “alterations of hearing”, “sounds seem to influence what I see”, “alteration of sense of time”, “the boundaries between myself and my surroundings seem to blur”, “want to be with other people”, and “want to be alone”. Scales are administered before and repeatedly after substance administration and take approximately 2 minutes to fill out. The maximal ratings (Emax, 0-100) and areas under the effect-time curve (AUEC) are defined for each VAS and Emax and AUEC values compared between treatments using analysis of variance. 5-Dimensions of Altered States of Consciousness (5D-ASC): The 5 Dimensions of Altered States of Consciousness (5D-ASC) Scale is a questionnaire containing visual analog scales for 94 items (Studerus et al., 2010). The instrument contains five scales assessing mood, anxiety, derealization, depersonalization, changes in perception, auditory alterations, and reduced vigilance. The scale is well-validated (Studerus et al., 2010) and used internationally to evaluate effects of many other psychoactive substances. The overall psychedelic experience is reflected by the total […] score. Each item of the scale is scored on a 0-100 mm VAS. The attribution of the individual items to the subscales of the 5D-ASC is analyzed according to (Studerus et al., 2010). The 5D-ASC scale is administered once at the end of the session and subjects are instructed to retrospectively rate peak alterations that have been experienced during the study session. Adiective Mood Rating Scale (AMRS): The Adjective Mood Rating Scale (AMRS or EWL60S) is a 60-item Likert scale that allows repeated assessment of mood in 6 dimensions: Activation, inactivation, well-being, anxiety/depressed mood, extra- and introversion, and emotional excitability. The German EWL60S version is used. The AMRS consists of subscales measuring “activation,” “positive mood,” “extraversion,” “introversion,” “inactivation,” and “emotional excitability. The scale has previously been used to evaluate effects of many other psychoactive substances. Emax and AUEC scores will be defined for each subscale and compared between treatments using analysis of variance. The AMRS is administered repeatedly throughout the study session and once 3 days after each session. States of Consciousness Questionnaire (SCQ): In the SCQ, 100-items are rated on a six-point scale. Forty-three items embedded into this questionnaire comprise the Mystical Experience Questionnaire (MEQ) (MacLean et al., 2011) which is sensitive to the effects of psychedelic substances such as LSD. […]

healthy subjects [2] = experiment: Alteration of mind and mystical-type effects on 5D-ASC and MEQ questionnaires; assay type: in vivo, human; details: for acute mystical-type experiences on the 5D-ASC scale: 24 subjects
Experimental: as §1, §2

mice [3] = details: cited from earlier work
healthy subjects [4] = experiment: Autonomic effects (blood pressure, heart rate, body temperature); assay type: in vivo, human
Experimental: as §1
Autonomic measures: Blood pressure, heart rate, and body temperature are recorded at baseline and repeatedly throughout the session. Blood pressure (systolic and diastolic) and heart rate are measured with an automatic oscillometric device. Body temperature is measured with an ear thermometer. Emax is determined for each of the measures and for each study session. These Emax values are then compared between drug conditions using analysis of variance.

prolactin (PRL) = details: preclinical research; cited from earlier work
[5] = mice; cited from earlier work
mice [6] = details: cited from earlier work; remark: listed apart in the source
healthy subjects [7] = experiment: Mood after effects day 1-3 (BDI score, SCL-90-R GSI score); assay type: in vivo, human
Experimental: as §1
Psychometric assessments: Visual Analog Scale (VAS): VASs is repeatedly used to assess subjective alterations in consciousness over time. Single scales are presented as 100 mm horizontal lines marked with “not at all” on the left and “extremely” on the right. […] Each item of the scale is scored on a 0-100 mm VAS. The attribution of the individual items to the subscales of the 5D-ASC is analyzed according to (Studerus et al., 2010). […]

rodents = details: relative to racemic MDMA; cited from earlier work
healthy subjects [8] = experiment: Adverse effects (List of Complaints); assay type: in vivo, human; details: for adverse effects 24 to 72 hours after substance administration: 125 mg, compared with placebo
Experimental: as §1
Adverse effects (list of complaints): The list of complaints (LC) consists of 66 items offering a global score measuring physical and general discomfort (Zerssen, 1976). The LC is administered before (baseline), at the end of the session to cover effects from 0-9 hours and 24 hours after substance administration to cover aftereffects from 9-24 hours. To assess adverse effects after 24 hours, subjects fill out an additional LC 3 days after the test session, covering adverse effects from 24-72 hours. Subjects are additionally be asked to report any adverse events during the sessions or/and between study sessions as assessed at the beginning of the next session and at the EOS visit. Global LC scores are summed up and compared between treatments using analysis of variance.

healthy subjects [9] = experiment: Clinical cross-over study, overall comparison of the substances; assay type: in vivo, human; details: for dose of more equivalent strength to 125 mg (±)-MDMA: based on the results of the present study; for acute subjective effects and adverse effects: conclusion over the doses tested
Experimental: as §1

rhesus monkeys = details: cited from earlier work
humans = details: earlier human study; R-MDMA doses up to 200 mg; cited from earlier work
[10] = administered repeatedly at high doses; cited from earlier work
serotonin = details: rat, in vivo; cited from earlier work
[11] = system: dopamine (DA), norepinephrine (NE), serotonin (5-HT), and oxytocin; details: preclinical research; cited from earlier work
[12] = 125 mg, compared with placebo (and 125 mg R-MDMA)

Compound: CN[C@H](C)Cc1ccc2c(c1)OCO2 [R-MDMA, R(−)-MDMA]
- effects on the AMRS (healthy subjects [1]; 125 mg): comparable effects
- AMRS “Extraversion” (healthy subjects [1]; 125 mg R-MDMA versus (±)-MDMA and S-MDMA): less
- effects on the AMRS (healthy subjects [1]; 250 mg): comparable effects
- AMRS “Introversion” (healthy subjects [1]; 250 mg R-MDMA versus (±)-MDMA): significant more
- acute mystical-type experiences on the 5D-ASC scale (healthy subjects [2]; 125 mg): only significantly induced mystical-type effects on the 5D-ASC total score and the “Reductions of vigilance” scale
- psychedelic effects on the 5D-ASC and the MEQ questionnaires (healthy subjects [2]; [12]): only significantly induced the 5D-ASC total score and the dimension “Reductions of vigilance” on the 5D-ASC and “positive mood”, “Ineffability” and the MEQ30 total score
- acute mystical-type experiences on the 5D-ASC scale (healthy subjects [2]; 250 mg): comparable effects with no significant differences
- psychedelic effects on the 5D-ASC and the MEQ questionnaires (healthy subjects [2]; 250 mg, compared with placebo and 125 mg R-MDMA): comparable and overall greater psychedelic effects
- peak effects on prosocial behaviors (mice [3]): greater peak effects than S-MDMA
- body temperature (healthy subjects [4]; 125 mg): did not increase body temperature significantly compared to placebo
- body temperature (healthy subjects [4]; 250 mg): increased similarly; also recorded: increased body temperature as much as (±)-MDMA and S-MDMA; also recorded: increased body temperature only moderately
- heart rate (healthy subjects [4]; 250 mg, versus placebo): increase heart rate comparably and more than with placebo
- release of prolactin (PRL) (prolactin (PRL)): release prolactin
- enantiomer converted to the other enantiomer after administration [5]: 3.5%
- duration of discriminative stimulus effects (mice [6]): shortest
- mood after administration (healthy subjects [7]; R-MDMA compared with S-MDMA): did not depress mood after administration
- potency for locomotor stimulant effects (rodents): clearly less potent than racemic MDMA
- adverse effects 24 to 72 hours after substance administration (healthy subjects [8]): only increased; also recorded: increased number of adverse effects
- overall adverse effects (healthy subjects [8]; R-MDMA versus (±)-MDMA): it does not seem that R-MDMA produces overall less adverse effects
- cardio and psychostimulant effects / properties (healthy subjects [9]; R-MDMA (125 and 250 mg) compared with S-MDMA): lower cardio and psychostimulant effects; also recorded: less cardiostimulant and psychostimulant properties
- dose of more equivalent strength to 125 mg (±)-MDMA (healthy subjects [9]): 300 mg
- acute subjective effects and adverse effects (healthy subjects [9]): overall comparable
- effect on social interaction and connectedness (healthy subjects [9]; within the dose range tested (125 and 250 mg)): less pronounced

Compound: CN[C@@H](C)Cc1ccc2c(c1)OCO2 [S-MDMA, S(+)-MDMA]
- effects on the AMRS (healthy subjects [1]; 125 mg): comparable effects
- AMRS “Emotional excitation” (healthy subjects [1]; 125 mg S-MDMA versus both doses of R-MDMA): more
- potency to maintain self-administration (rhesus monkeys): more potent than R-MDMA
- acute mystical-type experiences on the 5D-ASC scale (healthy subjects [2]; 125 mg): comparable effects with no significant differences
- psychedelic effects on the 5D-ASC and the MEQ questionnaires (healthy subjects [2]; [12]): comparable and overall greater psychedelic effects
- activity in humans (humans): more active than the R-enantiomer
- body temperature (healthy subjects [4]; 125 mg): increased similarly; also recorded: increased body temperature only moderately
- increases in blood pressure (healthy subjects [4]; 125 mg S-MDMA versus (±)-MDMA and both doses of R-MDMA): higher increases
- heart rate (healthy subjects [4]; 125 mg S-MDMA versus the other substance conditions): only significantly higher compared with 125 mg of R-MDMA
- heart rate (healthy subjects [4]; 125 mg, versus placebo): increase heart rate comparably and more than with placebo
- enantiomer converted to the other enantiomer after administration [5]: 9.9%
- neurotoxicity [10]: more neurotoxic than R-MDMA
- onset of interoceptive effects (mice [6]; compared with R-MDMA): faster
- BDI and GSI scores (healthy subjects [7]; 125 mg, one to three days after substance administration): only increased
- depleting serotonin (serotonin): more effective
- release of dopamine (DA), norepinephrine (NE), serotonin (5-HT), and oxytocin [11]: mainly releases
- potency for locomotor stimulant effects (rodents): mostly equipotent to racemic MDMA
- adverse effects 24 to 72 hours after substance administration (healthy subjects [8]): only increased; also recorded: increased number of adverse effects
- dose of more equivalent strength to 125 mg (±)-MDMA (healthy subjects [9]): 100 mg
- acute subjective effects and adverse effects (healthy subjects [9]): overall comparable
